Our source for the Ki and change in vivo values is patent US10071998B2, “Iminothiadiazine dioxides bearing an amine-linked substituent as BACE inhibitors, compositions, and their use” (Merck Sharp & Dohme Corp., priority 2015, dated 2018).

For assay [1], the target named is Recombinant human soluble BACE-1 catalytic domain (Homo sapiens (Human), UniProt P56817). The experiment in a line: BACE-1 Ki Assay (BACE-1 HTRF FRET Assay). The format is biochemical. The method, then: Assay 1: BACE-1 Ki Assay (BACE-1 HTRF FRET Assay)
The compounds of the invention were assessed for their ability to inhibit BACE-1 using the following assay.
The following reagents were used in this assay. Na^+-Acetate pH 5.0; 1% Brij-35; Glycerol; Dimethyl Sulfoxide (DMSO); Recombinant human soluble BACE-1 catalytic domain (>95% pure); APP Swedish mutant peptide substrate (QSY7-APP^swe-Eu): QSY7-EISEVNLDAEFC-Europium-amide.
A homogeneous time-resolved FRET assay can be used to determine IC50 values for inhibitors of the soluble human BACE-1 catalytic domain. This assay monitors the increase of 620 nm fluorescence that resulted from BACE-1 cleavage of an APPswedish APP^swe mutant peptide FRET substrate (QSY7-EISEVNLDAEFC-Europium-amide). This substrate contains an N-terminal QSY7 moiety that serves as a quencher of the C-terminal Europium fluorophore (620 nm Em). In the absence of enzyme activity, 620 nm fluorescence is low in the assay and increased linearly over 3 hours in the presence of uninhibited BACE-1 enzyme. Inhibition of BACE-1 cleavage of the QSY7-APP^swe-Eu substrate by inhibitors is manifested as a suppression of 620 nm fluorescence.
Varying concentrations of inhibitors at 3× the final desired concentration in a volume of 10 ul are preincubated with purified human BACE-1 catalytic domain (3 nM in 10 μl) for 30 minutes at 30° C. in reaction buffer containing 20 mM Na-Acetate pH 5.0, 10% glycerol, 0.1% Brij-35 and 7.5% DSMO. Reactions are initiated by addition of 10 μl of 600 nM QSY7-APP^swe-Eu substrate (200 nM final) to give a final reaction volume of 30 μl in a 384 well Nunc HTRF plate. The reactions are incubated at 30° C. for 1.5 hours. The 620 nm fluorescence is then read on a Rubystar HTRF plate reader (BMG Labtechnologies) using a […] delay followed by a 400 millisecond acquisition time window. Inhibitor IC50 values are derived from non-linear regression analysis of concentration response curves. Ki values are then calculated from IC50 values using the Cheng-Prusoff equation using a previously determined […] of 8 μM for the QSY7-APP^swe-Eu substrate at BACE-1. The example compounds of the invention were measured in this assay.
Background: TR-FRET usually uses a lanthanide donor and a delayed reading to cut background.

The test system of assay [2] is CSF levels of Aβ1-40 (Aβ40). The experiment in a line: Aβ Reduction In Vivo (rat CSF Aβ40). The conditions noted are these: 3 h, 10 mg/kg oral gavage. As to the method: Assay 3: Aβ Reduction In Vivo
The in vivo efficacy and/or potency of BACE inhibitors (test compounds) can be evaluated using a variety of animal models, including mouse, rat, dog, and monkey, and these animals can be wild type, transgenic, or gene knockout animals.
Generally, animals are administered (by oral gavage, intravenous injection, or by other suitable route) a test compound in doses ranging from, for example, 0.1 mg/kg (mg of compound per kg of animal body weight) to 100 mg/kg formulated in vehicles, such as cyclodextrin, phosphate buffer, hydroxypropyl methylcellulose or other suitable vehicles. One to twenty-four hours following the administration of compound, animals are sacrificed, and tissues (for example, brain, cerebrospinal fluid (CSF), and/or plasma) are collected for analysis of Aβ levels and/or test compound concentrations (Dovey et al., 2001, Journal of Neurochemistry, 76, 173-181). Tissue samples are processed appropriately and then analyzed for the presence of Aβ by specific sandwich ELISA assays based on electrochemiluminescence (ECL) technology.
For example, in the following assay for which data are reported below, male CD IGS rats (body weight approximately 120 g, Charles River Laboratories, Kingston, N.Y.) were used to asses lowering of CSF levels of Aβ1-40 (Aβ40) in the presence of compounds of the invention. At time 0, animals were administered by oral gavage a test compound at a dose of 10 mg/kg in 20% hydroxypropyl-β-cyclodextrin (dosing volume 5 mL/kg). A separate group of animals received 20% hydroxypropyl-β-cyclodextrin alone to serve as the vehicle control group. Three hours after administration, the rats were euthanized with excess CO2. Immediately following euthanasia, CSF was collected from the cisterna magna and quickly frozen on dry ice. Samples were stored at −80° C. until quantification of Aβ40 levels.
The measurement of endogenous rat Aβ40 in CSF relied on the 585 antibody (Ab585, BioSource, NONO585), which specifically recognizes the N-terminal sequence of rodent Aβ40, and on the monoclonal antibody, G2-10, which specifically recognizes the free C-terminus of Aβ40. Ab585 was labeled with biotin (b-Ab585) by first dialyzing the antibody sample extensively versus PBS (pH 7.8) to remove impurities, followed by dilution to between 1 and 2 mg/mL protein concentration. EZ-Link Sulfo-NHS-LC-Biotin (Pierce) was dissolved in PBS (pH 7.8) at a concentration of 1 mg/mL immediately prior to use. Ab585 was labeled with EZ-Link Sulfo-NHS-LC-biotin using a 10:1 biotin:antibody ratio by incubation at room temperature for 1 hour. The labeling reaction was quenched by addition of 1.0 M glycine to a final concentration of 0.1 M followed by 10 minute incubation at room temperature. Glycine was removed by extensive dialysis versus PBS.
For rat CSF Aβ40 determinations, a calibration curve of various concentrations of synthetic rodent Aβ40 was assayed in parallel with rat CSF samples in duplicate using an avidin-coated 96-well MSD plate (Mesoscale Diagnostics). Either 50 μL of rodent Aβ40 standards diluted in PBS (pH 7.4) supplemented with 1% BSA and 1% Tween-20 (standard diluent buffer) or 40 μL of standard diluent buffer plus 10 μL rat CSF were added to each 96 well avidin-coated plate. To each well was added 50 μL of 0.1 M HEPES (pH 7.5), 2% BSA, 2% Tween-20, 0.3 M NaCl (2× Aβ40 buffer) supplemented with the b-Ab585 capture and ruthenylated-G2-10 detection antibodies diluted to 1 μg/mL and 0.5 μg/mL, respectively. Plates were shaken for 1 min on a microplate shaker, covered to protect from light and incubated overnight (˜16 h) at 4° C. For detection, plates were first washed twice with 100 μL of 1×CSF Aβ40 buffer followed by addition of 160 μL of 1×MSD read buffer-T (Mesoscale Diagnostics) diluted in 1×CSF Aβ40 buffer. Plates were read on a MSD Sector Imager 2400 model (Mesoscale Diagnosotics). […]

In assay [3] the target is purified human autoBACE-2 (Homo sapiens (Human), UniProt Q9Y5Z0). The experiment in a line: BACE-2 Assay (BACE-HTRF assay). The format is biochemical. The note with it: Table 1; Ki calculated from IC50 with Cheng-Prusoff equation; read-out: BACE2 Ki. As to the method: Inhibitor IC50s, at purified human autoBACE-2 are determined in a time-resolved endpoint proteolysis assay that measures hydrolysis of the QSY7-EISEVNLDAEFC-Eu-amide FRET peptide substrate (BACE-HTRF assay). BACE-mediated hydrolysis of this peptide results in an increase in relative fluorescence (RFU) at 620 nm after excitation with 320 nm light. Inhibitor compounds, prepared at 3× the desired final concentration in 1× BACE assay buffer (20 mM sodium acetate pH 5.0, 10% glycerol, 0.1% Brij-35) supplemented with 7.5% DMSO are pre-incubated with an equal volume of autoBACE-2 enzyme diluted in 1×BACE assay buffer (final enzyme concentration 1 nM) in black 384-well NUNC plates for 30 minutes at 30° C. The assay is initiated by addition of an equal volume of the QSY7-EISEVNLDAEFC-Eu-amide substrate (200 nM final concentration, Km=8 μM […] for autoBACE-2) prepared in 1×BACE assay buffer supplemented with 7.5% DMSO and incubated for 90 minutes at 30° C. DMSO is present at 5% final concentration in the assay. Following laser excitation of sample wells at 320 nm, the fluorescence signal at 620 nm is collected for 400 ms following a 50 μs delay on a RUBYstar HTRF plate reader (BMG Labtechnologies). Raw RFU data is normalized to maximum (1.0 nM BACE/DMSO) and minimum (no enzyme/DMSO) RFU values. IC50 values are determined by nonlinear regression analysis (sigmoidal dose response, variable slope) of percent inhibition data with minimum and maximum values set to 0 and 100 percent respectively. Similar IC50s are obtained when using raw RFU data. The Ki values are calculated from the IC50 using the Cheng-Prusoff equation.

Where [4] appears, read: Table 1, Ki calculated from IC50 with Cheng-Prusoff equation, read-out: BACE1 Ki.
[5] abbreviates: Table 2, male CD IGS rats, CSF three hours after administration, percent change vs vehicle cohort.

Structures are written as SMILES. Read-outs that look alike come from different tables or passages of the source.

Sequence of Recombinant human soluble BACE-1 catalytic domain (P56817 75-416): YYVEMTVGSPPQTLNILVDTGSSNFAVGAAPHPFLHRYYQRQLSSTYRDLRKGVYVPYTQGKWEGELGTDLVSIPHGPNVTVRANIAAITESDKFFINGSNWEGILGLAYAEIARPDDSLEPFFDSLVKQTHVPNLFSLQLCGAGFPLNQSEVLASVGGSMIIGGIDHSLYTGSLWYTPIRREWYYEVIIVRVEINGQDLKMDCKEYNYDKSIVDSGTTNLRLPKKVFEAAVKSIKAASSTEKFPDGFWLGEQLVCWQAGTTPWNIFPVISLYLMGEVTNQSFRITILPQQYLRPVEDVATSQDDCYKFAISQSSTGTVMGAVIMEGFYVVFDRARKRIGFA
Sequence of purified human autoBACE-2 (Q9Y5Z0 63-473): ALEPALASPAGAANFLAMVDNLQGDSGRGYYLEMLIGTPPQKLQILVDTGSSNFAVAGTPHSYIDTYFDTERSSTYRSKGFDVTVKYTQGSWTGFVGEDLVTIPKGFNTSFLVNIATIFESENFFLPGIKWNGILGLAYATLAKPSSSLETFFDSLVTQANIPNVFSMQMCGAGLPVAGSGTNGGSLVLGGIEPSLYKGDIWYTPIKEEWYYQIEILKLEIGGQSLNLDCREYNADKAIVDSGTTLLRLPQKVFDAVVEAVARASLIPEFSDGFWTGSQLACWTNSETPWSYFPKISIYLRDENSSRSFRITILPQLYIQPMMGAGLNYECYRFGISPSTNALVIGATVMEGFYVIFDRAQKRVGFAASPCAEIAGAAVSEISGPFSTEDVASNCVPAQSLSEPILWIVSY

Consider `COc1cccnc1Nc1ccnc([C@]2(C)CS(=O)(=O)N(C)C(=N)N2)c1` [165 (Table XXI), reference compound], for which the Ki (as a rule, a dissociation constant, usually derived from enzyme kinetics or from competition with a known ligand) in assay [1] (Table 3, comparator compounds of WO2011044181, read-out: BACE-1 Ki Nm) was 0.048 µM. For the same compound, in assay [2] (Table 3, comparator compounds of WO2011044181, rats, CSF at three hours, percent change vs vehicle), the change in vivo at 10 mg/kg is -11%.
`COc1cnc2c(Nc3ccc(F)c([C@]4(C)CS(=O)(=O)N(C)C(=N)N4)c3)nccc2c1` [Example 4, N-{4-fluoro-3-[(5R)-3-imino-2,5-dimethyl-1,1-dioxido-1,2,4-thiadiazinan-5-yl]phenyl}-3-methoxy-1,7-naphthyridin-8-amine]: the Ki in assay [1] (setting [4]) was 0.0117 µM; in assay [1] (Table 2, read-out: BACE1 Ki) it was 0.012 µM; in assay [3], 0.0058 µM. Besides, the change in vivo at 10 mg/kg in assay [2] (setting [5]) is -45%.
In the same order, the values of `CN1C(=N)N[C@](C)(c2cc(Nc3nccc4cc(C#N)cnc34)ccc2F)CS1(=O)=O` [Example 6, 8-({4-fluoro-3-[(5R)-3-imino-2,5-dimethyl-1,1-dioxido-1,2,4-thiadiazinan-5-yl]phenyl}amino)-1,7-naphthyridine-3-carbonitrile] are 0.00131 µM, 0.0013 µM, 0.00046 µM and -50%.
In the same order, the values of `CN1C(=N)N[C@](C)(c2cc(Nc3ncnc4cc(C#N)cnc34)ccc2F)CS1(=O)=O` [Example 7, 4-({4-fluoro-3-[(5R)-3-imino-2,5-dimethyl-1,1-dioxido-1,2,4-thiadiazinan-5-yl]phenyl}amino)pyrido[3,2-d]pyrimidine-7-carbonitrile] are 0.0032 µM, 0.0032 µM, 0.003 µM and -21%.
Taken in the same sequence, the figures for `CN1C(=N)N[C@](C)(c2cc(Nc3nccc4cc(F)cnc34)ccc2F)CS1(=O)=O` [Example 8, 3-fluoro-N-{4-fluoro-3-[(5R)-3-imino-2,5-dimethyl-1,1-dioxido-1,2,4-thiadiazinan-5-yl]phenyl}-1,7-naphthyridin-8-amine] were 0.0021 µM, 0.0021 µM, 0.00024 µM and -21%.
Regarding `CN1C(=N)N[C@](C)(c2cc(N[C@@H]3CCc4ncc(C(F)(F)F)cc43)ccc2F)CS1(=O)=O` [Example 16, (R)-5-(2-fluoro-5-(((R)-3-(trifluoromethyl)-6,7-dihydro-5H-cyclopenta[b]pyridin-5-yl)amino)phenyl)-3-imino-2,5-dimethyl-1,2,4-thiadiazinane 1,1-dioxide], the inhibition constant (Ki) is 0.0573 µM in assay [1] (setting [4]) and 0.242 µM in assay [3].
Taken in the same sequence, the figures for `CN1C(=N)N[C@](C)(c2cc(N[C@H]3CCc4cc(Cl)ccc43)ccc2F)CS1(=O)=O` [Example 17, (R)-5-(5-(((S)-5-chloro-2,3-dihydro-1H-inden-1-yl)amino)-2-fluorophenyl)-3-imino-2,5-dimethyl-1,2,4-thiadiazinane 1,1-dioxide] were 0.0102 µM and 0.0166 µM.
Taken in the same sequence, the figures for `CN1C(=N)N[C@](C)(c2cc(N[C@H]3CCc4cc(C#N)cnc43)ccc2F)CS1(=O)=O` [Example 18, (S)-7-((4-fluoro-3-((R)-3-imino-2,5-dimethyl-1,1-dioxido-1,2,4-thiadiazinan-5-yl)phenyl)amino)-6,7-dihydro-5H-cyclopenta[b]pyridine-3-carbonitrile] were 0.0031 µM and 0.0223 µM.
As for `CN1C(=N)N[C@](C)(c2cc(N[C@@H]3CCc4cc(C#N)cnc43)ccc2F)CS1(=O)=O` [Example 19, (R)-7-((4-fluoro-3-((R)-3-imino-2,5-dimethyl-1,1-dioxido-1,2,4-thiadiazinan-5-yl)phenyl)amino)-6,7-dihydro-5H-cyclopenta[b]pyridine-3-carbonitrile], the figures for the Ki in assay [1] (setting [4]) and in assay [3] were 0.081 µM and 0.0426 µM, respectively.
In the same order, the values of `CN1C(=N)N[C@](C)(c2cc(N[C@H]3CCCc4cc(Br)cnc43)ccc2F)CS1(=O)=O` [Example 20, (R)-5-(5-(((S)-3-bromo-5,6,7,8-tetrahydroquinolin-8-yl)amino)-2-fluorophenyl)-3-imino-2,5-dimethyl-1,2,4-thiadiazinane 1,1-dioxide] are 0.128 µM and 0.0431 µM.
